Experimental findings from patent US8143304B2, “(3-amino-1,2,3,4-tetrahydro-9 H-carbazol-9-yl)-acetic acid derivatives” (Actelion Pharmaceutical Ltd., priority 2006, dated 2012) are described below.

The test has as its target T1, hCRTH2 receptor (Homo sapiens, UniProt Q9Y5Y4).
T1 construct: expressed in transfected cells; host or cells: clonal HEK 293 cell line (membrane preparation)
T1 sequence (Q9Y5Y4 1-395): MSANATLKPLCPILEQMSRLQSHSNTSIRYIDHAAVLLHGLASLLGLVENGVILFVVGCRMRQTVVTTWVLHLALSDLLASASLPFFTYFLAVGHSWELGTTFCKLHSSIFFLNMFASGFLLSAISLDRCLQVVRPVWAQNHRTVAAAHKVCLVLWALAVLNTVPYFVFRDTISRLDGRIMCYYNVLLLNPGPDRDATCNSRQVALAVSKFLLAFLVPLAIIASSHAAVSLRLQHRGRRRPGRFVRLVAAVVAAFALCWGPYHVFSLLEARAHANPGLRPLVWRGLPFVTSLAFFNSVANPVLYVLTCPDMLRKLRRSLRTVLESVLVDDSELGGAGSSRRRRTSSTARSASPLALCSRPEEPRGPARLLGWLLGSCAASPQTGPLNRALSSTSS
The experiment in a line: hCRTH2 receptor membranes radioligand binding assay ({3H}-PGD2). Particulars: {3H}-PGD2 2.5 nM, membranes of HEK 293 cells expressing recombinant hCRTH2 receptor; read-out: hCRTH2 Bdg IC50. On the procedure:
The biological effect of such compounds may be tested in a variety of in vitro, ex vivo and in vivo assays.
Biological Assays: Preparation of hCRTH2 Receptor Membranes and Radioligand Binding Assay:
Cells are detached from culture plates in 5 ml buffer A per plate (5 mM Tris, pH 7.4, 1 mM MgCl2, 0.1 mM PMSF, 0.1 mM phenanthroline) using a police rubber and transferred into centrifugation tubes and frozen at −80° C. After thawing, the cells are centrifuged at 500 g for 5 min and then resuspended in buffer A. Cells are then fragmented by homogenization with a Polytron cell homogenizer for 30 s. The membrane fragments are collected by centrifugation at 3000 g for 40 min and resuspended in buffer B (50 mM Tris, pH 7.4, 25 mM MgCl2, 250 mM saccharose) and aliquots are stored at […].
Binding assay is performed in a total volume of 250 μl. […] For unspecific binding, PGD2 is added to the reaction mixture at 1 μM final concentration. This binding assay mix is incubated at rt for 90 min and then filtered through a GF/C filter plate. The filter is washed three times with ice cold binding buffer C. Then, Microscint-40 (Packard, 40 μl/well) is added and the receptor bound radioactivity is quantified by scintillation counting in a “TopCount” benchtop microplate scintillation counter (Packard).

The structures appear in SMILES notation.

`CCN(C(=O)CCc1ccccc1)[C@H]1CCc2c(c3cc(F)ccc3n2CC(=O)O)C1` [(3S)-{6-Fluoro-3-[ethyl-(3-phenyl-propionyl)-amino]-1,2,3,4-tetrahydro-9H-carbazol-9-yl}-acetic acid]: the IC50 – broadly, the concentration needed to halve the response being measured – amounted to 0.016 µM.
